Data taken from US4210749A, “Substituted 1,2,4,5-tetrahydro-3H,3 benzazepines” (priority 1979, dated 1980).
Structures can show the parent of a compound that is named as a salt. Where two headings read alike, the source gives them in different places.

Legend:
Format in all cases: in vivo
[1] = Narcotic antagonism I.P., Table IV
sciatic block = test: Local anesthetic sciatic block, Table IV; settings: 1%
[2] = I.P. symptomatology (highest tolerated dose, median lethal dose), Table IV; settings: for LD50 / MTD: in vivo, ip; for MTD: read-out: HTD (highest tolerated dose)
[3] = Analgesic activity, hot plate method
[4] = Analgesic activity, writhing method

Row | Structure (SMILES) | Narcotic Antagonism [1] | Local Anesthetic Sciatic Block (sciatic block) | LD50 [2] [mg/kg] | MTD [2] [mg/kg] | other results
1 | C[C@@H]1Cc2ccccc2CCN1C (single isomer, unassigned) [Example 54, (-)-2,3-Dimethyl-1,2,4,5-tetrahydro-3H,3-benzazepine hydrochloride] | Negative | Positive | 60 | 3 | 
2 | COc1ccc2c(c1)CC(C)N(C)CC2 (single isomer, unassigned; (-)) [Example 63, (-)-8-Methoxy-2,3-dimethyl-1,2,4,5-tetrahydro-3H,3-benzazepine hydrochloride] | Negative | Positive |  |  | HTD (highest tolerated dose) ([2]; hydrochloride): 3 mg/kg
3 | CN1CC[C@]23c4c5ccc(O)c4O[C@H]2[C@@H](O)C=C[C@H]3[C@H]1C5 [Morphine, reference compound] |  |  |  |  | Hot Plate ED50 ([3]; IP): 2.5 mg/kg; Hot Plate ED50 ([3]; PO): 14 mg/kg; Writhing ED50 ([4]; PO): 3 mg/kg
4 | C[C@H]1Cc2ccccc2CCN1C (single isomer, unassigned) [Example 50, (+)-2,3-Dimethyl-1,2,4,5-tetrahydro-3H,3-benzazepine hydrochloride] | Negative | Positive |  | 10 | LD50 (median lethal dose) [2]: 25 mg/kg
5 | COc1ccc2c(c1)CC(C)N(CC1CC1)CC2 (centres unmarked) [Example 42, 3-Cyclopropylmethyl-8-methoxy-2-methyl-1,2,4,5-tetrahydro-3H,3-benzazepine hydrochloride] | Negative |  | 60 | 10 | 
6 | COc1ccc2c(c1)CC(C)NCC2 (centres unmarked) [Example 32, 8-Methoxy-2-methyl-1,2,4,5-tetrahydro-3H,3-benzazepine] | Negative | Positive | ~60 | ~10 | 
7 | Oc1ccc2c(c1)CCN(C[C@@H]1C[C@H]1c1ccccc1)CC2 (relative stereo) [Example 30, 7-Hydroxy-3(trans-2-phenylcyclopropylmethyl)-1,2,4,5-tetrahydro-3H,3-benzazepine] | Negative |  | > 1000 | 1000 | 
8 | COc1ccc(CCN2CCc3ccc(OC)cc3CC2C)cc1 (centres unmarked) [Example 61, 8-Methoxy-3-(p-methoxyphenethyl-2-methyl-1,2,4,5-tetrahydro-3H,3-benzazepine hydrochloride] | Negative | Positive | ~60 | 3 | 
9 | C=CCN1CCc2ccc(O)cc2CC1 [Example 11, 3-Allyl-7-hydroxy-1,2,4,5-tetrahydro-3H,3-benzazepine] | Positive | Positive | 50 | 20 | ED50 ([3]; ip): 35 mg/kg; ED50 ([3]; po): > 316 mg/kg; ED50 ([4]; po): > 316 mg/kg
10 | COc1ccc2c(c1)CCN(CC=C(C)C)CC2 [Example 3, 3-(3,3-Dimethylallyl)-7-methoxy-1,2,4,5-tetrahydro-3H,3-benzazepine] | Negative | Positive | 50 | 30 | 
11 | Oc1ccc2c(c1)CCNCC2 [Example 2, 7-Hydroxy-1,2,4,5-tetrahydro-3H,3-benzazepine] | Negative | Positive | 200 | 10 | 
12 | CCCN1CCc2ccc(OC)cc2CC1 [Example 22, 7-Methoxy-3-n-propyl-1,2,4,5-tetrahydro-3H,3-benzazepine] | Positive |  | 50 | 30 | ED50 ([3]; ip): 26 mg/kg; ED50 ([3]; po): > 316 mg/kg; ED50 ([4]; po): > 316 mg/kg; ED50 ([4]; sc): > 32 mg/kg
13 | CC(C)=CCN1CCc2ccc(OC(=O)C34CC5CC(CC(C5)C3)C4)cc2CC1 [Example 6, 7-(Adamantanecarbonyloxy)-3-(3,3-dimethylallyl)-1,2,4,5-tetrahydro-3H,3-benzazepine hydrochloride] | Positive |  | > 300 | 10 | 
14 | COc1ccc2c(c1)CCN(CC1CCC1)CC2 [Example 13, 3-Cyclobutylmethyl-7-methoxy-1,2,4,5-tetrahydro-3H,3-benzazepine] | Negative |  | 80 | 30 | 
15 | COc1ccc2c(c1)CC(C)N(CC=C(C)C)CC2 (centres unmarked) [Example 33, 3-(3,3-Dimethylallyl)-8-methoxy-2-methyl-1,2,4,5-tetrahydro-3H,3-benzazepine hydrochloride] | Negative |  | 50 | 1 | 
16 | CC(C)=CCN1CCc2ccc(O)cc2CC1C (single isomer, unassigned; (+)) [Example 56, (+)-3-(3,3-Dimethylallyl)-8-hydroxy-2-methyl-1,2,4,5-tetrahydro-3H,3-benzazepine hydrochloride] |  | Positive |  |  | Narcotic Antagonism ([1]; hydrochloride): Negative; HTD (highest tolerated dose) [2]: 10 mg/kg
17 | Oc1ccc2c(c1)CCN(CC1CC1)CC2 [Example 8, 3-Cyclopropylmethyl-7-hydroxy-1,2,4,5-tetrahydro-3H,3-benzazepine] | Positive | Positive | 30 | 20 | 

Row | Structure (SMILES) | Narcotic Antagonism [1] | Local Anesthetic Sciatic Block (sciatic block) | LD50 [2] [mg/kg] | MTD [2] [mg/kg] | other results
18 | COc1ccc2c3c1O[C@H]1[C@@H](O)C=C[C@H]4[C@@H](C2)N(C)CC[C@@]341 [Codeine, reference compound] |  |  |  |  | ED50 ([3]; ip): 12 mg/kg; ED50 ([3]; po): 20 mg/kg; ED50 ([4]; po): 17 mg/kg
19 | CCN1CCc2ccc(OC)cc2CC1 [Example 20, 3-Ethyl-7-methoxy-1,2,4,5-tetrahydro-3H,3-benzazepine] | Negative | Positive | 60 | 1 | ED50 ([3]; ip): 15 mg/kg; ED50 ([3]; po): > 125 mg/kg; ED50 ([4]; po): > 125 mg/kg; ED50 ([4]; sc): > 32 mg/kg
20 | COc1ccc2c(c1)CC(C)N(CC=Cc1ccccc1)CC2 (centres unmarked) [Example 44, 8-Methoxy-2-methyl-3-(3-phenylallyl)-1,2,4,5-tetrahydro-3H,3-benzazepine hydrochloride] | Negative | Insoluable | 60 | 10 | 
21 | C[C@H]1Cc2ccccc2CCN1 (single isomer, unassigned) [Example 48, (-)-2-Methyl-1,2,4,5-tetrahydro-3H,3-benzazepine] | Some | Positive | 60 | 30 | 
22 | Oc1ccc2c(c1)CCN(Cc1ccco1)CC2 [Example 60, 3-Furfuryl-7-hydroxy-1,2,4,5-tetrahydro-3H,3-benzazepine hydrochloride] | Negative | Positive | ~200 | 10 | 
23 | COc1ccc2c(c1)CCN(CC1CCCC1)CC2 [Example 12, 3-Cyclopentylmethyl-7-methoxy-1,2,4,5-tetrahydro-3H,3-benzazepine] |  |  |  |  | ED50 ([3]; ip): 45 mg/kg; ED50 ([3]; po): > 178 mg/kg; ED50 ([4]; po): > 178 mg/kg
24 | CC(C)=CCN1CCc2ccc(O)cc2CC1C (single isomer, unassigned; (-)) [Example 55, (-)-3-(3,3-Dimethylallyl)-8-hydroxy-2-methyl-1,2,4,5-tetrahydro-3H,3-benzazepine hydrochloride] |  | Positive |  | 10 | 
25 | COc1ccc2c(c1)CC(C)N(CCc1ccccc1C)CC2 (centres unmarked) [Example 59, 3-(o-Methylphenethyl)-8-methoxy-2-methyl-1,2,4,5-tetrahydro-3H,3-benzazepine hydrochloride] | Negative | Insoluble | ~60 | 0.3 | 
26 | COc1ccc2c(c1)CC(C)NCC2 (single isomer, unassigned; (-)) [Example 51, (-)8-Methoxy-2-methyl-1,2,4,5-tetrahydro-3H,3-benzazepine] | Negative | Positive |  | 10 | 
27 | COc1ccc2c(c1)CC(C)N(CCc1ccc(O)cc1)CC2 (centres unmarked) [Example 58, 3-(P-Hydroxyphenethyl-8-methoxy-2-methyl-1,2,4,5-tetrahydro-3H,3-benzazepine hydrochloride] | Negative | Insoluble | > 300 | 1 | 
28 | Oc1ccc2c(c1)CCN(CC1CCC1)CC2 [Example 9, 3-Cyclobutylmethyl-7-hydroxy-1,2,4,5-tetrahydro-3H,3-benzazepine] | Negative | Positive | 80 | 20 | 
29 | CCN1CCc2ccc(O)cc2CC1 [Example 21, 3-Ethyl-7-hydroxy-1,2,4,5-tetrahydro-3H,3-benzazepine] | Positive |  | 80 | 30 | 
30 | CC1Cc2cc(O)ccc2CCN1C (single isomer, unassigned; (+)) [Example 57, (+)-8-Hydroxy-2,3-dimethyl-1,2,4,5-tetrahydro-3H,3-benzazepine hydrochloride] |  | Positive | > 100 | 10 | 
31 | C[C@@H]1Cc2ccccc2CCN1 (single isomer, unassigned) [Example 49, (+)-2-Methyl-1,2,4,5-tetrahydro-3H,3-benzazepine hydrochloride] | Negative | Positive | 200 | 30 | 
32 | COc1ccc2c(c1)CC(C)NCC2 (single isomer, unassigned; (+)) [Example 53, (+)-8-Methoxy-2-methyl-1,2,4,5-tetrahydro-3H,3-benzazepine hydrochloride] | Negative | Positive |  |  | HTD (highest tolerated dose) [2]: 10 mg/kg
33 | COc1ccc2c(c1)CC(C)N(C)CC2 (single isomer, unassigned; (+)) [Example 62, (+)-8-Methoxy-2,3-dimethyl-1,2,4,5-tetrahydro-3H,3-benzazepine hydrochloride] | Negative | Positive |  |  | HTD (highest tolerated dose) ([2]; hydrochloride): 10 mg/kg
